The target in assay [1] is T1, TaqCad1 (Thermoanaerobaculum aquaticum, UniProt A0A062XY19, G264D/N549D).
T1 construct: gene EG19_07865; full length 1-625, C-terminal His6 tag kept, E. coli NiCo21(DE3); homohexamer (trimer of dimers); N-terminal CARF, C-terminal ADA domain
As to the kind of experiment: HPLC ATP deamination assay. Format: biochemical. To be noted: no conversion; cA4 activator, Mg2+, pH 7.5, 55 °C.

For assay [2], the target named is T2, TaqCad1 (Thermoanaerobaculum aquaticum, UniProt A0A062XY19, N549D).
T2 construct: gene EG19_07865; full length 1-625, C-terminal His6 tag kept, E. coli NiCo21(DE3); homohexamer (trimer of dimers); N-terminal CARF, C-terminal ADA domain
T2 sequence (A0A062XY19 entry or part of it N549D): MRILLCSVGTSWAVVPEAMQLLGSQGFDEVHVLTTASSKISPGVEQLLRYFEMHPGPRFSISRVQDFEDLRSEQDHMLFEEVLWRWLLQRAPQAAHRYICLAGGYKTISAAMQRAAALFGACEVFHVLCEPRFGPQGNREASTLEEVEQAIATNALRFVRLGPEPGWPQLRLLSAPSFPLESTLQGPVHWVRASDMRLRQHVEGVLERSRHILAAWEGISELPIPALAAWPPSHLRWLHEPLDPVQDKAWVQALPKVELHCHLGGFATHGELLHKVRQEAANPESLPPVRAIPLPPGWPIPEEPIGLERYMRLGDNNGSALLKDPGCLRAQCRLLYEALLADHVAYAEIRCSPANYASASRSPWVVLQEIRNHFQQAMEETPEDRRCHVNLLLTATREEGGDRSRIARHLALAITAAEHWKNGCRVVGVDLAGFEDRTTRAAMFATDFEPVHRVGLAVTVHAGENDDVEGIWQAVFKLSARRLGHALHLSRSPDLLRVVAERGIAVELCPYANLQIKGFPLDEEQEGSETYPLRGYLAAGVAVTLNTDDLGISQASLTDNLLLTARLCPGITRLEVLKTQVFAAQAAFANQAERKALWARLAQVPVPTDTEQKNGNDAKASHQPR
As to the kind of experiment: HPLC ATP deamination assay. Format: biochemical. To be noted: no conversion; cA4 activator, Mg2+, pH 7.5, 55 °C.

The target of assay [3] is T3, TaqCad1 (Thermoanaerobaculum aquaticum, UniProt A0A062XY19).
T3 construct: gene EG19_07865; full length 1-625, C-terminal His6 tag kept, E. coli NiCo21(DE3); homohexamer (trimer of dimers); N-terminal CARF, C-terminal ADA domain
T3 sequence (A0A062XY19 entry or part of it): as the sequence (A0A062XY19 entry or part of it N549D) above, with D549N counted along it
As to the kind of experiment: microscale thermophoresis (RED-tris-NTA labelled protein). It is filed as binding. A general note: Microscale thermophoresis detects binding through changes in fluorescence in a small temperature gradient.

The target of assay [4] is TaqCad1 R408D/A411E variant (Thermoanaerobaculum aquaticum). As to the kind of experiment: SEC; gel filtration elution profiles of wild type and R408D/A411E compared; column and buffer of this run not stated.

Like-named read-outs stand apart in the source and are kept apart here.

T1 sequence (A0A062XY19 entry or part of it G264D/N549D): as the sequence (A0A062XY19 entry or part of it N549D) above, with G264D counted along it

For `Nc1ncnc2c1ncn2[C@@H]1O[C@H](COP(=O)(O)OP(=O)(O)OP(=O)(O)O)[C@@H](O)[C@H]1O` [ATP], the “HPLC ATP deamination assay” value at TaqCad1 [1] and at TaqCad1 [2] was “the N549D or the N549D/G264D variant of TaqCad1 did not react to ATP” in each case.

Take `Nc1ncnc2c1ncn2[C@@H]1O[C@@H]2COP(=O)(O)O[C@H]3[C@@H](O)[C@H](n4cnc5c(N)ncnc54)O[C@@H]3COP(=O)(O)O[C@H]3[C@@H](O)[C@H](n4cnc5c(N)ncnc54)O[C@@H]3COP(=O)(O)O[C@H]3[C@@H](O)[C@H](n4cnc5c(N)ncnc54)O[C@@H]3COP(=O)(O)O[C@H]2[C@H]1O` [cA4]: at TaqCad1 [3] (read-out: apparent Kd), the Kd was 13 ± 7 nM.

In the case of `Nc1ncnc2c1ncn2[C@@H]1O[C@@H]2COP(=O)(O)O[C@H]3[C@@H](O)[C@H](n4cnc5c(N)ncnc54)O[C@@H]3COP(=O)(O)O[C@H]3[C@@H](O)[C@H](n4cnc5c(N)ncnc54)O[C@@H]3COP(=O)(O)O[C@H]3[C@@H](O)[C@H](n4cnc5c(N)ncnc54)O[C@@H]3COP(=O)(O)O[C@H]3[C@@H](O)[C@H](n4cnc5c(N)ncnc54)O[C@@H]3COP(=O)(O)O[C@H]3[C@@H](O)[C@H](n4cnc5c(N)ncnc54)O[C@@H]3COP(=O)(O)O[C@H]2[C@H]1O` [cA6], the Kd at TaqCad1 [3] (read-out: apparent dissociation constant) is about 1400 nM.

For TaqCad1 R408D/A411E variant (enzyme), in assay [4], the stoichiometry N (commonly a count of units in the complex or per binding partner) came out at 2.

The values are drawn from publication PMC12669630, “The twist-and-squeeze activation of CARF-fused adenosine deaminase by cyclic oligoadenylates” (The EMBO Journal, 2025).
